In patent publication US10875875B2, “Propionic acid derivatives and methods of use thereof” (Aviara Pharmaceuticals, Inc., priority 2017, dated 2020):

Each compound was assayed against α4β1 (Homo sapiens, UniProt P05556+P13612) (assay: α4β1 integrin inhibition, IC50). Conditions: read-out: α4β1 IC50.
Chain of α4β1 (P13612 34-1032): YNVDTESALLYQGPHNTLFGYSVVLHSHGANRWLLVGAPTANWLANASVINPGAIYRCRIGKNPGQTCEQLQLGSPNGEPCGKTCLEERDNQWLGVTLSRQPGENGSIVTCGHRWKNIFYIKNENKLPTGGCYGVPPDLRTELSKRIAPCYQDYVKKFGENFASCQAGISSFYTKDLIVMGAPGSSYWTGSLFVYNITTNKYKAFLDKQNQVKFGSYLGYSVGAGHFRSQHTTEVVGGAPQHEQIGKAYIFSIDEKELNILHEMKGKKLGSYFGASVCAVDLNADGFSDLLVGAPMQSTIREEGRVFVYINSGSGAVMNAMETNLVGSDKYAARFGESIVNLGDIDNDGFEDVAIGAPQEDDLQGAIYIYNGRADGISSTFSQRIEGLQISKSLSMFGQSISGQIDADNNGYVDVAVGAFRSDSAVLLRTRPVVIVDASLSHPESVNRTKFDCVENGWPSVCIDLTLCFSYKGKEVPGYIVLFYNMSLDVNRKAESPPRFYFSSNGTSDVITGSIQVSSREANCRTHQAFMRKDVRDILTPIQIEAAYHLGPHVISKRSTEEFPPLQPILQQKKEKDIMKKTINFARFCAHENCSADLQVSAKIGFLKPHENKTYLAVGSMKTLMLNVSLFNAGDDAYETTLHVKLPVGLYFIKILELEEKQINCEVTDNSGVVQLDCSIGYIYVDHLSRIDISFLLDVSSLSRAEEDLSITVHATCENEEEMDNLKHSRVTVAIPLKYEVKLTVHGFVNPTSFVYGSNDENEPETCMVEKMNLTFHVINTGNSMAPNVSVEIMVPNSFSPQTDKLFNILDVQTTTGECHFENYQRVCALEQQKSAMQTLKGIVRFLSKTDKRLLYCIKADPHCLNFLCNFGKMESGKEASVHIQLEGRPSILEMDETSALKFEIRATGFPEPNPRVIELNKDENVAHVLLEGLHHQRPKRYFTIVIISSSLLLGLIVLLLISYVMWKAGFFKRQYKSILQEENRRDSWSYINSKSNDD
Chain of α4β1 (P05556 21-798): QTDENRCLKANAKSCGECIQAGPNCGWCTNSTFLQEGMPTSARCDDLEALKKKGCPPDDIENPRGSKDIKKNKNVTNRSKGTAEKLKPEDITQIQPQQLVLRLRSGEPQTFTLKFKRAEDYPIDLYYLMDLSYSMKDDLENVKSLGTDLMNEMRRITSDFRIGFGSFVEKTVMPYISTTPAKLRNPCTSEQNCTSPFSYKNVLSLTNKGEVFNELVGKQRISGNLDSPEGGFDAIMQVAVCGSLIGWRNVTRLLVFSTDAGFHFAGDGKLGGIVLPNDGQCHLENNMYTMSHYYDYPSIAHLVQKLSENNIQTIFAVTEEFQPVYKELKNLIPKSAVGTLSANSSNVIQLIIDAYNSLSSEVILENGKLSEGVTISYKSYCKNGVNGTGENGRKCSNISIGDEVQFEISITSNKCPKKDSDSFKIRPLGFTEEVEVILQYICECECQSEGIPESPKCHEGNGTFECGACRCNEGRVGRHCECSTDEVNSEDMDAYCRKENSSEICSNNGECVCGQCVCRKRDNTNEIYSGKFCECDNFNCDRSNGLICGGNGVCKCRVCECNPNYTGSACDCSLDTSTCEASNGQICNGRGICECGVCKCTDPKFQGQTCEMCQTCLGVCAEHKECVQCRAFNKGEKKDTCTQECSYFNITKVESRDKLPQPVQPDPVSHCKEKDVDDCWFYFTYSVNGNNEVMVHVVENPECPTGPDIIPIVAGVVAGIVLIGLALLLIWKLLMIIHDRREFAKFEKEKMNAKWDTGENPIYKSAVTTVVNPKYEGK
Format: binding
With `COc1ccc([C@H](CC(=O)O)NC(=O)Nc2c(O)cc(C)n(C)c2=O)cc1-c1cccc(OC(F)(F)F)c1` [1-554, sodium (S)-3-(3-(1,6-dimethyl-4-oxido-2-oxo-1,2-dihydropyridin-3-yl)ureido)-3-(6-methoxy-3′-(trifluoromethoxy)biphenyl-3-yl)propanoate] the IC50 was less than 20 nM. For `Cc1ccc([C@H](CC(=O)O)NC(=O)Nc2c(O)ccn(C)c2=O)cc1-c1cccc(Cl)c1` [1-555, sodium (S)-3-(3′-chloro-6-methylbiphenyl-3-yl)-3-(3-(1-methyl-4-oxido-2-oxo-1,2-dihydropyridin-3-yl)ureido)propanoate], the IC50 was less than 20 nM. In the case of `Cc1cc(O)c(NC(=O)N[C@@H](CC(=O)O)c2cccc(-c3cccc(Cl)c3)c2)c(=O)n1C` [1-556, sodium (S)-3-(3′-chlorobiphenyl-3-yl)-3-(3-(1,6-dimethyl-4-oxido-2-oxo-1,2-dihydropyridin-3-yl)ureido)propanoate], the IC50 is reported as less than 20 nM. `Cc1cc(O)c(NC(=O)N[C@@H](CC(=O)O)c2cccc(-c3ccc(F)cc3F)c2)c(=O)[nH]1` [1-557, sodium (S)-3-(2′,4′-difluorobiphenyl-3-yl)-3-(3-(6-methyl-4-oxido-2-oxo-1,2-dihydropyridin-3-yl)ureido)propanoate] was tested, and the IC50 was greater than 200 nM. Compound `COc1cc(-c2ccccc2)cc([C@H](CC(=O)O)NC(=O)Nc2c(O)ccn(C)c2=O)c1` [1-558, sodium (S)-3-(5-methoxybiphenyl-3-yl)-3-(3-(1-methyl-4-oxido-2-oxo-1,2-dihydropyridin-3-yl)ureido)propanoate] has an IC50 of less than 20 nM. `Cn1ccc(O)c(NC(=O)N[C@@H](CC(=O)O)c2cccc(-c3ccoc3)c2)c1=O` [1-559, sodium (S)-3-(3-(furan-3-yl)phenyl)-3-(3-(1-methyl-4-oxido-2-oxo-1,2-dihydropyridin-3-yl)ureido)propanoate] was tested, and the IC50 was less than 20 nM. In the case of `COc1cccc(-c2ccc([C@H](CC(=O)O)NC(=O)Nc3c(O)ccn(C)c3=O)s2)c1` [1-563, sodium (S)-3-(5-(3-methoxyphenyl)thiophen-2-yl)-3-(3-(1-methyl-4-oxido-2-oxo-1,2-dihydropyridin-3-yl)ureido)propanoate], the IC50 is reported as less than 20 nM. For `COc1cccc(-c2cc(OC)cc([C@H](CC(=O)O)NC(=O)Nc3c(O)ccn(C)c3=O)c2)c1` [1-564, sodium (S)-3-(3′,5-dimethoxybiphenyl-3-yl)-3-(3-(1-methyl-4-oxido-2-oxo-1,2-dihydropyridin-3-yl)ureido)propanoate], the IC50 was less than 20 nM. `COc1cc(-c2cccc(OC(F)(F)F)c2)cc([C@H](CC(=O)O)NC(=O)Nc2c(O)ccn(C)c2=O)c1` [1-565, sodium (S)-3-(5-methoxy-3′-(trifluoromethoxy)biphenyl-3-yl)-3-(3-(1-methyl-4-oxido-2-oxo-1,2-dihydropyridin-3-yl)ureido)propanoate] was tested, and the IC50 was less than 20 nM. With `COc1cc(-c2ccc(F)cc2F)cc([C@H](CC(=O)O)NC(=O)Nc2c(O)ccn(C)c2=O)c1` [1-566, sodium (S)-3-(2′,4′-difluoro-5-methoxybiphenyl-3-yl)-3-(3-(1-methyl-4-oxido-2-oxo-1,2-dihydropyridin-3-yl)ureido)propanoate] the IC50 was less than 20 nM. `COc1cccc(-c2cc(OC)cc([C@H](CC(=O)O)NC(=O)Nc3c(O)cc(C)n(C)c3=O)c2)c1` [1-567, sodium (S)-3-(3′,5-dimethoxybiphenyl-3-yl)-3-(3-(1,6-dimethyl-4-oxido-2-oxo-1,2-dihydropyridin-3-yl)ureido)propanoate] gave an IC50 of less than 20 nM. `COc1cc(-c2cccc(OC(F)(F)F)c2)cc([C@H](CC(=O)O)NC(=O)Nc2c(O)cc(C)n(C)c2=O)c1` [1-568, sodium (S)-3-(3-(1,6-dimethyl-4-oxido-2-oxo-1,2-dihydropyridin-3-yl)ureido)-3-(5-methoxy-3′-(trifluoromethoxy)biphenyl-3-yl)propanoate] showed an IC50 of less than 20 nM. For `COc1cccc(-c2cc([C@H](CC(=O)O)NC(=O)Nc3c(O)cc(C)n(C)c3=O)ccc2C)c1` [1-569, sodium (S)-3-(3-(1,6-dimethyl-4-oxido-2-oxo-1,2-dihydropyridin-3-yl)ureido)-3-(3′-methoxy-6-methylbiphenyl-3-yl)propanoate], the IC50 was less than 20 nM.
